Results on five compounds are retold here after patent US20240299360A1, “ADAMTS INHIBITORS, PREPARATION METHODS AND MEDICINAL USES THEREOF” (Jiangsu Hengrui Pharmaceuticals Co., Ltd., priority 2020, published 2024).

The target in test [1] is T1, ADAMTS-5 recombinant protein (Homo sapiens (Human), UniProt Q9UNA0). Kind of test: In vitro fluorescence (FRET-peptide) enzymatic assay of ADAMTS-5 activity. The class given is biochemical. To be noted: FRET peptide substrate 8 μM, 10 nM enzyme, 37° C. 3 hours. The gist of the method:
(§1)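 Enzyme (10 nM final) was preincubated with compound for 15 min at room temperature in 50 mM HEPES pH 7.5, 100 mM NaCl, 5 mM CaCl2, 0.1% CHAPS, 5% glycerol. FRET peptide was then added (15 μM for ADAMTS-4, 8 μM for ADAMTS-5), and fluorescence (Ex 490/Em 520 nm) was read after 3 h at 37° C. IC50 was derived from four-parameter fits.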

Test [2] concerns mouse femoral head cartilage. Kind of test: Mouse explant assay (IL-1α induced GAG release). To be noted: inhibition of GAG release, IL-1α 1 ng/ml, 72 hours; for inhibition at 2 µM: compound 2 μM; for inhibition at 20 µM: compound 20 μM. Type of test: cell-based. The protocol:
In this assay, fresh mouse femoral head cartilage was treated with IL-1α protein (Sigma-Aldrich, catalog #12778) in culture media, which induces the cartilage catabolism. Then, the GAGs attached to the cleaved aggrecan fragments (released in the media) and the GAGs attached to the intact aggrecan were measured by dimethylmethylene blue dye in the Glycosaminoglycans Assay Kit (Chondrex, catalog #6022).
Femoral head cartilage samples were isolated from mice (25 days old, male, C57BL/6, from Charles River Lab) and put into 2.0 ml tubes filled-up with media (DMEM, 10% FBS, 4 mM Glutamine, penicillin-streptomycin, 20 mM HEPES). Two hundred μl of media without FBS was added to each well of a 48-well plate, and one piece of cartilage was transferred to a well in the plate. Then the media was aspirated, and compounds and IL-1α protein were added to the plate in a total volume of 400 μl of fresh media without FBS. The final concentration of IL-1α was 1 ng/ml. The plate was incubated at 37° C. for 72 hours in a humidified incubator with 5% CO2 supply.
The supernatant was transferred to a 1.5 ml tube and kept at −20° C. Each cartilage sample was transferred to another 1.5 ml tube containing 400 μl of freshly made papain solution. The papain solution contained 125 μg/ml papain (Sigma-Aldrich, catalog #P3125), 0.1 M sodium acetate (Sigma-Aldrich, catalog #S7899), pH 5.5 and 5 mM EDTA and 5 mM L-cysteine-HCl (Sigma-Aldrich, catalog #C7880). The cartilage samples were kept rocking in a 60° C. water bath for 24 hours. The lysates were vortexed for 10 seconds and spinned at 10,000 rpm for 2 minutes.
Both the supernatant and the lysate samples were diluted with PBS and mixed with 100 μl of dye from the Glycosaminoglycans Assay Kit. The optical density from each well was determined with a TECAN plate reader set to a wavelength of 525 nm.
The concentrations of GAGs in the supernatant and lysates were determined based on the standard curve with a dose range of chondroitin sulfate provided in the kit. The percentage of GAG release was calculated as the following
The test compound effect was expressed as the percent of inhibition using the following formula: […]

The target in test [3] is T1, ADAMTS-5 recombinant protein. Kind of test: In vitro ELISA of ADAMTS-5 activity (Aggrecan-IGD enzymatic assay). Type of test: biochemical. To be noted: aggrecan-IGD substrate, ARGSVIL-peptide ELISA, 37° C. 45 minutes. The gist of the method:
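Recombinant ADAMTS-5 (0.3 nM diluted) was preincubated with compound 15 min at room temperature in 50 mM HEPES pH 7.5, 100 mM NaCl, 5 mM CaCl2, 0.1% CHAPS, 5% glycerol. Aggrecan-IGD substrate (T331-G458, His-tagged; 100 nM diluted) was then added for 45 min at 37 °C. ARGSVIL neoepitope was quantified by ELISA (A450) against a 4PL standard curve, and IC50 came from a four-parameter fit.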
For orientation: In an ELISA, binding on a coated surface is turned into a signal by an enzyme label.

Test [4] has as its target ADAMTS-4 recombinant protein (Homo sapiens (Human), UniProt O75173). Kind of test: In vitro fluorescence (FRET-peptide) enzymatic assay of ADAMTS-4 activity. Type of test: biochemical. To be noted: FRET peptide substrate 15 μM, 10 nM enzyme, 37° C. 3 hours. The gist of the method: as §1

pIC50: −log10 of the molar value.

T1 sequence (Q9UNA0 262-622): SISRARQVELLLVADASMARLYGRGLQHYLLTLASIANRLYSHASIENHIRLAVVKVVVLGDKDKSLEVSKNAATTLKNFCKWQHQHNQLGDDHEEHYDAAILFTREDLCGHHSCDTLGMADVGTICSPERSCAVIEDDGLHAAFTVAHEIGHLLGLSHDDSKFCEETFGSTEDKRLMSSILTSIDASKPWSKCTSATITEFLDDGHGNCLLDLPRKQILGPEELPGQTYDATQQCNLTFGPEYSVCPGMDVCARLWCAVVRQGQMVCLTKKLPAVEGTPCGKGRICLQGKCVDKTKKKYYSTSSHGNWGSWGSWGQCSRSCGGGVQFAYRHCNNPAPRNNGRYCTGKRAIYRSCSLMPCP
Sequence of ADAMTS-4 recombinant protein (O75173 213-685): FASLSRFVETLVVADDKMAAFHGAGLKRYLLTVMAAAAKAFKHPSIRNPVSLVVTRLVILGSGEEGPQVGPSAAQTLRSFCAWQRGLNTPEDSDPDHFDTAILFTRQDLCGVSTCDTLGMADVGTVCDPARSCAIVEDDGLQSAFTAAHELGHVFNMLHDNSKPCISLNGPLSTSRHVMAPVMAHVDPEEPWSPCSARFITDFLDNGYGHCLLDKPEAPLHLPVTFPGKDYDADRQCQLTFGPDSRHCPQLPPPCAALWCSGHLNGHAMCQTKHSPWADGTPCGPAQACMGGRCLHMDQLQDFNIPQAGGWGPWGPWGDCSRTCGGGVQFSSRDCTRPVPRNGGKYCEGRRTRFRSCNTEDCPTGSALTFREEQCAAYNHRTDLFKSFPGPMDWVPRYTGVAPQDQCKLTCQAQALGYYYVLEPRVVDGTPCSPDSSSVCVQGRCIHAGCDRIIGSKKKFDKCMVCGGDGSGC

The term pIC50 denotes the IC50 on a negative log10 scale, so that one unit is a factor of ten. One may read the inhibition as the change of the read-out against control, counted positive when it falls. Turning to `O=C1NC(=O)[C@](CCC(=O)N2CCc3ccc(F)cc3CC2)(C2CC2)N1` [Example 44, (S)-5-cyclopropyl-5-(3-(7-fluoro-1,2,4,5-tetrahydro-3H-benzo[d]azepin-3-yl)-3-oxopropyl)imidazolidine-2,4-dione], the pIC50 in test [1] is 7.43; in test [3], 7.29; in test [4] it was 7.82. Besides, the inhibition at 2 µM in test [2] was 13%. For the same compound, at 20 µM the inhibition in test [2] was 70%.
The like results for `O=C1NC(=O)[C@](CCC(=O)N2CCc3ccc(C(F)(F)F)cc3CC2)(C2CC2)N1` [Example 45, (S)-5-cyclopropyl-5-(3-oxo-3-(7-(trifluoromethyl)-1,2,4,5-tetrahydro-3H-benzo[d]azepin-3-yl)propyl)imidazolidine-2,4-dione] were, in that order, 7.92, 7.60, 7.72, 45% and 96%.
Regarding `O=C1NC(=O)[C@](CCC(=O)N2Cc3ccc(C(F)F)cc3C2)(C2CC2)N1` [Example 52, (S)-5-cyclopropyl-5-(3-(5-(difluoromethyl)isoindolin-2-yl)-3-oxopropyl)imidazolidine-2,4-dione], the pIC50 in test [1] is 7.18; in test [3] it was 7.32; in test [4], 7.52. The compound also had an inhibition at 2 µM in test [2] of 10%. Also, in test [2], at 20 µM the inhibition was 48%.
As for `O=C1NC(=O)[C@](CCC(=O)N2Cc3cc(Br)c(C(F)(F)F)cc3C2)(C2CC2)N1` [Example 59, (S)-5-(3-(5-bromo-6-(trifluoromethyl)isoindolin-2-yl)-3-oxopropyl)-5-cyclopropylimidazolidine-2,4-dione], the results for the pIC50 in test [1], in test [3] and in test [4] were 7.34, 7.34 and 7.09, respectively. Also, 2 µM produced 16% inhibition in test [2]. In addition, the inhibition at 20 µM in test [2] came out at 66%.
With `C[C@@H]1c2cc(Cl)c(Cl)cc2CN1C(=O)CC[C@@]1(C2CC2)NC(=O)NC1=O` [Example 66-2, (S)-5-cyclopropyl-5-(3-((R)-5,6-dichloro-1-methylisoindolin-2-yl)-3-oxopropyl)imidazolidine-2,4-dione], the pIC50 in test [1] is 8.00; in test [3] it was 7.72; in test [4], 7.92. Moreover, the inhibition at 2 µM in test [2] was 23%. The compound also returned an inhibition at 20 µM in test [2] of 87%.
